In US20050019426A1, “Use of an aqueous or hydroalcoholic extract from bauhinia for the preparation of a composition” (priority 2003, published 2005):
Values joined by “and” are separate entries in the source; they are usually repeats but may differ in a detail not shown here. Identical values can stand only once.

Test system: non-enzymatic incorporation of glucose into proteins (glycation) in human dermal fibroblasts (NDHF Pool PF2)
Test: Non-enzymatic incorporation of glucose into proteins (glycation) in fibroblasts (Example 5)
Type: cell-based
Settings: 1 mg/ml, 15 days
Experimental: Material: • human dermal fibroblasts (NDHF Pool PF2) • culture medium: DMEM, 2 mM glutamine, 50 Ul/ml of penicillin, 50 μg/ml of streptomycin, 10% foetal calf serum (Life Technologies) • dry extract of Bauhinia forficata according to Example 4 (aqueous extraction), dissolved in sterile PBS • final concentrations tested: 0.3 mg/ml, 0.1 mg/ml, 0.03 mg/ml • reference: aminoguanidine 1 mg/ml
Human dermal fibroblasts are cultivated to confluence in cell culture medium (see above) in 25 cm^2 plates at 37° C. and 5% CO2. Collagen synthesis is stimulated by cultivation of the cells in the presence of vitamin C (final concentration: 20 μg/ml) for 96 hours. The cells are washed with PBS and lysed by serial freezing/thawing. The cells are treated with aqueous extract of Bauhinia forficata or aminoguanidine (and control: PBS) and labelled with 20 μCi/ml D-[5-^3H]-glucose (19 Ci/mmol), 703 Gbq/mmol) in the presence of 0.1 mg/ml of glucose. The treatment and labelling are carried out without interruption for 15 days at 37° C. and 5% CO2. At the end of the incubation, proteins of the extracellular matrix (principally collagen) are extracted by buffer (TRIS 50 mM, 4M guanidine, 5 mM EDTA, pH 8.0, 30 min). The total protein is precipitated by 20% (v/v) trichloroacetic acid, 0.66 mg/ml of albumin. The precipitates are recovered by filtration from a Skatron collector and washed copiously, firstly in 3% trichloroacetic acid, then with 70% ethanol. The glucose covalently bonded to the fibres of the extracellular matrix is finally measured by scintillation.

N=C(N)NN [Aminoguanidine, aminoguanidine]
reduction of glucose incorporation: 85% | Mean cpm (n=3): 3701 cpm | cpm (glucose incorporated into proteins) (single replicates): 2859 cpm and 3434 cpm and 4809 cpm | activity at 1000 µg/mL (Homo sapiens, Fibroblast, 360 h, read-out: % of control (glucose incorporation)): 15%
